Test system: human hair follicles
Experiment: Growth of cultivated entire human hair follicles from scalp ex vivo, 14 days of culture
Type: cell-based
Conditions: vs control non-treated follicles, minoxidil concentration not given
Experimental: Study of the effect of a Cleome spinosa extract on the growth of cultivated human hair follicles.
Evaluation of minoxidil, a reference molecule, was conducted in parallel.
Hair follicles originate from the human scalp from plastic surgery departments of hospitals or clinics (two donors).
The skin is shaved and washed in 6 baths of antibiotics. The follicles in the anagen phase are recognizable because they are very vascularized, and then isolated from the skin under a binocular magnifier and cleared of fat.
They are then incubated at 37° C. in 24-well culture dishes in an adequate culture medium containing the products to be tested.
The growth of the stem of the hair follicle is measured with plotting paper under a binocular magnifier on days 0, 4, 5, 7, 9, 12 or 14.
The determination of the growth and activity percentages of the hydroalcoholic extract of Cleome spinosa was carried out after 4 or 5, 7 or 8, 12 and 14 days of treatment of the hair follicles as compared with control non-treated follicles.
Notation: Tx is the time x after treatment • T0 is time 0 of the beginning of the treatment
The growth percentage is equal to (Tx measurement−T0 measurement)/T0 measurement×100
The activity of the treatment is calculated in the following way: [(Tx treated measurement−T0 treated measurement)−(Tx control measurement−T0 control measurement)]/(Tx control measurement−T0 control measurement)×100

## Nc1cc(N2CCCCC2)nc(N)[n+]1[O-] [Minoxidil, 2,4-diamino-6-piperidinopyrimidine-3-oxide]
D4/D5 of treatment
  % of activity: 55%
D8/D7 of treatment
  % of activity: 41%
D12 of treatment
  % of activity: 21%
D14 of treatment
  % of activity: 17%
